Experimental data reported in ChEMBL document CHEMBL4819051, “Synthesis and antifungal activity of new hybrids thiazolo[4,5-d]pyrimidines with (1H-1,2,4)triazole” (Bioorg Med Chem Lett, 2021).
Converted amounts (≈) assume the structure as drawn.

Legend:
Candida parapsilosis [1] = assay: Antifungal activity against Candida parapsilosis ATCC 22019 assessed as reduction in fungal growth incubated for 24 hrs by CLSI based serial microbroth dilution method; assay type: functional; details: Lodderomyces parapsilosis
Candida parapsilosis [2] = assay: Antifungal activity against Candida parapsilosis ATCC 22019 assessed as reduction in fungal growth incubated for 48 hrs by CLSI based serial microbroth dilution method; assay type: functional; details: Lodderomyces parapsilosis
Candida albicans [3] = assay: Antifungal activity against Candida albicans ATCC 24433 assessed as reduction in fungal growth incubated for 24 hrs by CLSI based serial microbroth dilution method; assay type: functional
Candida albicans [4] = assay: Antifungal activity against Candida albicans ATCC 24433 assessed as reduction in fungal growth incubated for 48 hrs by CLSI based serial microbroth dilution method; assay type: functional
Candida albicans [5] = assay: Antifungal activity against Candida albicans 8R assessed as reduction in fungal growth incubated for 24 hrs by CLSI based serial microbroth dilution method; assay type: functional
Candida albicans [6] = assay: Antifungal activity against Candida albicans 8R assessed as reduction in fungal growth incubated for 48 hrs by CLSI based serial microbroth dilution method; assay type: functional
Candida albicans [7] = assay: Antifungal activity against Candida albicans CBS 8837 assessed as reduction in fungal growth incubated for 24 hrs by CLSI based serial microbroth dilution method; assay type: functional
Candida albicans [8] = assay: Antifungal activity against Candida albicans CBS 8837 assessed as reduction in fungal growth incubated for 48 hrs by CLSI based serial microbroth dilution method; assay type: functional
Candida albicans [9] = assay: Antifungal activity against Candida albicans 604M assessed as reduction in fungal growth incubated for 24 hrs by CLSI based serial microbroth dilution method; assay type: functional
Candida albicans [10] = assay: Antifungal activity against Candida albicans 604M assessed as reduction in fungal growth incubated for 48 hrs by CLSI based serial microbroth dilution method; assay type: functional
Candida tropicalis [11] = assay: Antifungal activity against Candida tropicalis 3019 assessed as reduction in fungal growth incubated for 24 hrs by CLSI based serial microbroth dilution method; assay type: functional
Candida tropicalis [12] = assay: Antifungal activity against Candida tropicalis 3019 assessed as reduction in fungal growth incubated for 48 hrs by CLSI based serial microbroth dilution method; assay type: functional
Pichia kudriavzevii [13] = assay: Antifungal activity against Candida krusei 432M assessed as reduction in fungal growth incubated for 24 hrs by CLSI based serial microbroth dilution method; assay type: functional
Pichia kudriavzevii [14] = assay: Antifungal activity against Candida krusei 432M assessed as reduction in fungal growth incubated for 48 hrs by CLSI based serial microbroth dilution method; assay type: functional
Cryptococcus neoformans [15] = assay: Antifungal activity against Cryptococcus neoformans assessed as reduction in fungal growth incubated for 24 hrs by CLSI based serial microbroth dilution method; assay type: functional
Cryptococcus neoformans [16] = assay: Antifungal activity against Cryptococcus neoformans assessed as reduction in fungal growth incubated for 48 hrs by CLSI based serial microbroth dilution method; assay type: functional
Aspergillus niger [17] = assay: Antifungal activity against Aspergillus niger 37a assessed as reduction in fungal growth incubated for 24 hrs by CLSI based serial microbroth dilution method; assay type: functional
Aspergillus niger [18] = assay: Antifungal activity against Aspergillus niger 37a assessed as reduction in fungal growth incubated for 48 hrs by CLSI based serial microbroth dilution method; assay type: functional
Microsporum canis [19] = assay: Antifungal activity against Microsporum canis B-200 assessed as reduction in fungal growth incubated for 24 hrs by CLSI based serial microbroth dilution method; assay type: functional
Microsporum canis [20] = assay: Antifungal activity against Microsporum canis B-200 assessed as reduction in fungal growth incubated for 48 hrs by CLSI based serial microbroth dilution method; assay type: functional
Cyberlindnera jadinii [21] = assay: Antifungal activity against Candida utilis 84 assessed as reduction in fungal growth incubated for 24 hrs by CLSI based serial microbroth dilution method; assay type: functional; details: Williopsis jadinii
Cyberlindnera jadinii [22] = assay: Antifungal activity against Candida utilis 84 assessed as reduction in fungal growth incubated for 48 hrs by CLSI based serial microbroth dilution method; assay type: functional; details: Williopsis jadinii
Trichophyton rubrum [23] = assay: Antifungal activity against Trichophyton rubrum 2002 assessed as reduction in fungal growth incubated for 24 hrs by CLSI based serial microbroth dilution method; assay type: functional
Trichophyton rubrum [24] = assay: Antifungal activity against Trichophyton rubrum 2002 assessed as reduction in fungal growth incubated for 48 hrs by CLSI based serial microbroth dilution method; assay type: functional
Nakaseomyces glabratus [25] = assay: Antifungal activity against Candida glabrata 61L assessed as reduction in fungal growth incubated for 24 hrs by CLSI based serial microbroth dilution method; assay type: functional
Nakaseomyces glabratus [26] = assay: Antifungal activity against Candida glabrata 61L assessed as reduction in fungal growth incubated for 48 hrs by CLSI based serial microbroth dilution method; assay type: functional
[27] = 1-octanol/aqueous buffer distribution coefficient, logP of the compound at pH 7.4; assay type: physicochemical

Compound | MIC (Candida parapsilosis [1]) [µg/mL] | MIC (Candida parapsilosis [2]) [µg/mL] | MIC (Candida albicans [3]) [µg/mL] | MIC (Candida albicans [4]) [µg/mL] | MIC (Candida albicans [5]) [µg/mL] | MIC (Candida albicans [6]) [µg/mL] | MIC (Candida albicans [7]) [µg/mL] | MIC (Candida albicans [8]) [µg/mL] | MIC (Candida albicans [9]) [µg/mL] | MIC (Candida albicans [10]) [µg/mL] | MIC (Candida tropicalis [11]) [µg/mL] | MIC (Candida tropicalis [12]) [µg/mL] | MIC (Pichia kudriavzevii [13]) [µg/mL] | MIC (Pichia kudriavzevii [14]) [µg/mL] | MIC (Cryptococcus neoformans [15]) [µg/mL] | MIC (Cryptococcus neoformans [16]) [µg/mL] | MIC (Aspergillus niger [17]) [µg/mL] | MIC (Aspergillus niger [18]) [µg/mL] | MIC (Microsporum canis [19]) [µg/mL] | MIC (Microsporum canis [20]) [µg/mL] | further results
O=c1c2sc(=S)n(-c3ccc(F)cc3)c2ncn1CCCN1CCN(CC(O)(Cn2cncn2)c2ccc(F)cc2F)CC1 (stereo not drawn) | 0.06 (≈ 0.0934 µM) | 0.125 (≈ 0.194 µM) | 8 (≈ 12.4 µM) | 8 (≈ 12.4 µM) | 32 (≈ 49.8 µM) | 32 (≈ 49.8 µM) | 16 (≈ 24.9 µM) | 32 (≈ 49.8 µM) | 32 (≈ 49.8 µM) | 32 (≈ 49.8 µM) | 4 (≈ 6.22 µM) | 4 (≈ 6.22 µM) | 8 (≈ 12.4 µM) | 16 (≈ 24.9 µM) | 16 (≈ 24.9 µM) | 16 (≈ 24.9 µM) | 16 (≈ 24.9 µM) | 16 (≈ 24.9 µM) | 4 (≈ 6.22 µM) | 4 (≈ 6.22 µM) | MIC (Cyberlindnera jadinii [21]): 1 µg/mL (≈ 1.56 µM); MIC (Cyberlindnera jadinii [22]): 1 µg/mL (≈ 1.56 µM); MIC (Trichophyton rubrum [23]): 32 µg/mL (≈ 49.8 µM); MIC (Trichophyton rubrum [24]): 32 µg/mL (≈ 49.8 µM); MIC (Nakaseomyces glabratus [25]): 4 µg/mL (≈ 6.22 µM); MIC (Nakaseomyces glabratus [26]): 32 µg/mL (≈ 49.8 µM)
Cc1ccc(-n2c(=S)sc3c(=O)n(CCN4CCN(CC(O)(Cn5cncn5)c5ccc(F)cc5F)CC4)cnc32)cc1 (stereo not drawn) | 0.5 (≈ 0.8 µM) | 0.5 (≈ 0.8 µM) | 8 (≈ 12.8 µM) | 16 (≈ 25.6 µM) | 32 (≈ 51.2 µM) | 32 (≈ 51.2 µM) | 16 (≈ 25.6 µM) | 32 (≈ 51.2 µM) | 16 (≈ 25.6 µM) | 32 (≈ 51.2 µM) | 4 (≈ 6.4 µM) | 8 (≈ 12.8 µM) | 16 (≈ 25.6 µM) | 32 (≈ 51.2 µM) | 32 (≈ 51.2 µM) | 32 (≈ 51.2 µM) | 32 (≈ 51.2 µM) | 32 (≈ 51.2 µM) | 32 (≈ 51.2 µM) | 32 (≈ 51.2 µM) | logD [27]: 2.9; MIC (Cyberlindnera jadinii [21]): 2 µg/mL (≈ 3.2 µM); MIC (Cyberlindnera jadinii [22]): 4 µg/mL (≈ 6.4 µM); MIC (Trichophyton rubrum [23]): 32 µg/mL (≈ 51.2 µM); MIC (Trichophyton rubrum [24]): 32 µg/mL (≈ 51.2 µM); MIC (Nakaseomyces glabratus [25]): 4 µg/mL (≈ 6.4 µM); MIC (Nakaseomyces glabratus [26]): 32 µg/mL (≈ 51.2 µM)
COc1ccccc1-n1c(=S)sc2c(=O)n(CC(=O)NCC(O)(Cn3cncn3)c3ccc(F)cc3F)cnc21 (stereo not drawn) | – | – | – | – | – | – | – | – | – | – | – | – | – | – | – | – | – | – | – | – | logD [27]: 0.8
COc1ccccc1-n1c(=S)sc2c(=O)n(CC(O)(Cn3cncn3)c3ccc(F)cc3F)cnc21 (stereo not drawn) | – | – | – | – | – | – | – | – | – | – | – | – | – | – | – | – | – | – | – | – | logD [27]: 1.19
O=c1c2sc(=S)n(-c3ccc(F)cc3)c2ncn1CCN1CCN(CC(O)(Cn2cncn2)c2ccc(F)cc2F)CC1 (stereo not drawn) | 0.5 (≈ 0.795 µM) | 1 (≈ 1.59 µM) | 8 (≈ 12.7 µM) | 8 (≈ 12.7 µM) | 32 (≈ 50.9 µM) | 32 (≈ 50.9 µM) | 32 (≈ 50.9 µM) | 32 (≈ 50.9 µM) | 32 (≈ 50.9 µM) | 32 (≈ 50.9 µM) | 32 (≈ 50.9 µM) | 32 (≈ 50.9 µM) | 32 (≈ 50.9 µM) | 32 (≈ 50.9 µM) | 32 (≈ 50.9 µM) | 32 (≈ 50.9 µM) | 32 (≈ 50.9 µM) | 32 (≈ 50.9 µM) | 32 (≈ 50.9 µM) | 32 (≈ 50.9 µM) | MIC (Cyberlindnera jadinii [21]): 32 µg/mL (≈ 50.9 µM); MIC (Cyberlindnera jadinii [22]): 32 µg/mL (≈ 50.9 µM); MIC (Trichophyton rubrum [23]): 32 µg/mL (≈ 50.9 µM); MIC (Trichophyton rubrum [24]): 32 µg/mL (≈ 50.9 µM); MIC (Nakaseomyces glabratus [25]): 32 µg/mL (≈ 50.9 µM); MIC (Nakaseomyces glabratus [26]): 32 µg/mL (≈ 50.9 µM)
COc1ccccc1-n1c(=S)sc2c(=O)n(CC(O)CN3CCN(CC(O)(Cn4cncn4)c4ccc(F)cc4F)CC3)cnc21 (stereo not drawn) | – | – | – | – | – | – | – | – | – | – | – | – | – | – | – | – | – | – | – | – | logD [27]: 2.91
OC(Cn1cncn1)(Cn1cncn1)c1ccc(F)cc1F [FLUCONAZOLE] | 2 (≈ 6.53 µM) | 4 (≈ 13.1 µM) | 4 (≈ 13.1 µM) | 4 (≈ 13.1 µM) | 128 (≈ 418 µM) | 128 (≈ 418 µM) | 128 (≈ 418 µM) | 128 (≈ 418 µM) | 64 (≈ 209 µM) | 64 (≈ 209 µM) | 1 (≈ 3.27 µM) | 2 (≈ 6.53 µM) | 32 (≈ 104 µM) | 64 (≈ 209 µM) | 16 (≈ 52.2 µM) | 16 (≈ 52.2 µM) | 64 (≈ 209 µM) | 64 (≈ 209 µM) | 32 (≈ 104 µM) | 32 (≈ 104 µM) | MIC (Cyberlindnera jadinii [21]): 2 µg/mL (≈ 6.53 µM); MIC (Cyberlindnera jadinii [22]): 2 µg/mL (≈ 6.53 µM); MIC (Trichophyton rubrum [23]): 64 µg/mL (≈ 209 µM); MIC (Trichophyton rubrum [24]): 128 µg/mL (≈ 418 µM); MIC (Nakaseomyces glabratus [25]): 8 µg/mL (≈ 26.1 µM); MIC (Nakaseomyces glabratus [26]): 32 µg/mL (≈ 104 µM)
